Measurements from US12486301B2, “8-fluoro-4-alkylumbelliferyl α-D-glucopyranoside, biological sterilization indicator including the same and its use in a method of determining efficacy of a sterilization process” (Solventum Intellectual Properties Company, priority 2019, dated 2025).

Test system: Geobacillus stearothermophilus spores (ATCC 7953)
Assay: Fluorescence from enzyme substrates incubated with Geobacillus stearothermophilus spores in culture media
Assay type: cell-based
Details: 5×10^3 spores, substrate 0.1 mg/mL, 60° C.; for MEASURED FLUORESCENCE, RFU 10 sec: 360 nm excitation/450 nm emission
Experimental: Culture media was prepared by dissolving 5 g/L peptone C (BD 211921) and 12 g/L phytone peptone (BD BBL 211906) in deionized water. The pH was adjusted with 1 N NaOH or 0.1 N HCl, the media brought to volume, and then filter sterilized with a 0.22 micron PES filter. Stock solutions ([…]) of 8′-fluoro-4′-methylumbelliferyl-α-D-glucopyranoside, 6′-fluoro-4′-methylumbelliferyl-α-D-glucopyranoside, and 4-methylumbelliferyl-α-D-glucopyranoside were prepared in DMSO. The aforementioned substrates were added to culture media at a final concentration of 0.1 mg/ml and media were then 0.22 μm filter sterilized.
Culture media (pH 6) containing 8′-fluoro-4′-methylumbelliferyl-[…]-D-glucopyranoside (0.1 mg/mL) was added to two wells (100 microliters per well) of a black 96-well microtiter plate with (NUNC #165301, Thermo Fisher Scientific). A 5 microliter aqueous suspension containing 5×10^3 Geobacillus stearothermophilus spores (ATCC 7953) was added to each well of the microtiter plate. Next, the contents of each well were mixed using a multiple aspiration/delivery sequence with the pipet. […] The top of the plate was covered with an optically clear sealing film (product #4311971, Applied Biosystems Corporation, Foster City, California). The plate was warmed at 60° C. and shaken in a linear direction. Fluorescence readings (360 nm excitation/450 nm emission at 50% gain) were taken from the top of the plate. A reading was taken at an initial time point of 10 seconds and then at +1 minute intervals thereafter. A Synergy Neo2 fluorescence plate reader (BioTek Company, Winooski, Vermont) was used. In Table 1, the mean fluorescence values detected (RFU) at times of 10 seconds, +5 minutes, +10 minutes, and +30 minutes are reported. The mean fluorescence values detected for the control wells were 614 RFU at 10 seconds; 547 RFU at +5 minutes; 504 RFU at +10 minutes, and 438 RFU at +30 minutes.
Culture media (pH 7) containing 8′-fluoro-4′-methylumbelliferyl-[…]-D-glucopyranoside (0.1 mg/mL) was added to two wells (100 microliters per well) of a black 96-well microtiter plate with (NUNC #165301, Thermo Fisher Scientific). A 5 microliter aqueous suspension containing 5×10^3 Geobacillus stearothermophilus spores (ATCC 7953) was added to each well of the microtiter plate. Next, the contents of each well were mixed using a multiple aspiration/delivery sequence with the pipet. […] The top of the plate was covered with an optically clear sealing film (product #4311971, Applied Biosystems Corporation). The plate was warmed at 60° C. and shaken in a linear direction. Fluorescence readings (360 nm excitation/450 nm emission at 50% gain) were taken from the top of the plate. A reading was taken at an initial time point of 10 seconds and then at +1 minute intervals thereafter. A Synergy Neo2 fluorescence plate reader (BioTek Company) was used. In Table 2, the mean fluorescence values detected (RFU) at times of 10 seconds, +5 minutes, +10 minutes, and +30 minutes are reported. The mean fluorescence values detected for the control wells were 601 RFU at 10 seconds; 533 RFU at +5 minutes; 495 RFU at +10 minutes, and 430 RFU at +30 minutes.
Culture media (pH 8) containing 8′-fluoro-4′-methylumbelliferyl-[…]-D-glucopyranoside (0.1 mg/mL) was added to two wells (100 microliters per well) of a black 96-well microtiter plate with (NUNC #165301, Thermo Fisher Scientific). A 5 microliter aqueous suspension containing 5×10^3 Geobacillus stearothermophilus spores (ATCC 7953) was added to each well of the microtiter plate. Next, the contents of each well were mixed using a multiple aspiration/delivery sequence with the pipet. […] The top of the plate was covered with an optically clear sealing film (product #4311971, Applied Biosystems Corporation). The plate was warmed at 60° C. and shaken in a linear direction. Fluorescence readings (360 nm excitation/450 nm emission at 50% gain) were taken from the top of the plate. […]

SMILES: Cc1cc(=O)oc2c(F)c(O[C@H]3O[C@H](CO)[C@@H](O)[C@H](O)[C@H]3O)ccc12 [Example 1, 8′-Fluoro-4′-methylumbelliferyl […]-D-glucopyranoside]
- MEASURED FLUORESCENCE, RFU 10 sec (pH 6 culture media): 806 RFU
- MEASURED FLUORESCENCE, RFU +10 min (pH 6 culture media): 1909 RFU
- MEASURED FLUORESCENCE, RFU +5 min (pH 7 culture media): 1474 RFU
- MEASURED FLUORESCENCE, RFU +10 min (pH 7 culture media): 2681 RFU
- MEASURED FLUORESCENCE, RFU +30 min (pH 7 culture media): 10190 RFU
- MEASURED FLUORESCENCE, RFU +30 min (pH 8 culture media): 7477 RFU

SMILES: Cc1cc(=O)oc2cc(O[C@H]3O[C@H](CO)[C@@H](O)[C@H](O)[C@H]3O)c(F)cc12 [Example 6F-MUG, 6′-Fluoro-4′-methylumbelliferyl […]-D-glucopyranoside]
- MEASURED FLUORESCENCE, RFU 10 sec (pH 6 culture media): 886 RFU
- MEASURED FLUORESCENCE, RFU +10 min (pH 6 culture media): 1903 RFU
- MEASURED FLUORESCENCE, RFU +5 min (pH 7 culture media): 1130 RFU
- MEASURED FLUORESCENCE, RFU +10 min (pH 7 culture media): 1855 RFU
- MEASURED FLUORESCENCE, RFU +30 min (pH 7 culture media): 8708 RFU
- MEASURED FLUORESCENCE, RFU +30 min (pH 8 culture media): 5638 RFU

SMILES: Cc1cc(=O)oc2cc(O[C@H]3O[C@H](CO)[C@@H](O)[C@H](O)[C@H]3O)ccc12 [MUG, 4′-methylumbelliferyl-α-D-glucopyranoside]
- MEASURED FLUORESCENCE, RFU 10 sec (pH 6 culture media): 646 RFU
- MEASURED FLUORESCENCE, RFU +10 min (pH 6 culture media): 588 RFU
- MEASURED FLUORESCENCE, RFU +5 min (pH 7 culture media): 634 RFU
- MEASURED FLUORESCENCE, RFU +10 min (pH 7 culture media): 655 RFU
- MEASURED FLUORESCENCE, RFU +30 min (pH 7 culture media): 1219 RFU
- MEASURED FLUORESCENCE, RFU +30 min (pH 8 culture media): 1725 RFU
